From patent US20230121771A1, “A PHARMACEUTICAL COMBINATION OF AN ARTEMISININ COMPOUND, 5-AMINOLEVULINIC ACID OR METHYL-5-AMINOLEVULINIC ACID AND A CHEMOTHERAPEUTIC AGENT” (JLP Health GmbH, priority 2020, published 2023)
Starred links: 1 amine or outer side, 2 acyl side, 3 side chain; linkers in the order of their positions; H or OH if unused. Positions of bridges follow the written chain, without caps; N, C: chain ends. Non-standard residues stand in square brackets, D forms with d. Residues, ends and D or L forms follow the SMILES beside them. Chains are numbered I, II in the order given. Actinocin(9to1) = Cc1c2oc3c(C)ccc(C(=O)[*:1])c3nc-2c(C(=O)[*:2])c(N)c1=O; NMeV = CN[C@H](C(=O)O)C(C)C; Sar = CNCC(=O)O

What was measured:
[1] = system: cancer cell lines originating from other tissues; assay: 6-day cell survival assay, cancer cell lines originating from other tissues (summary); assay type: cell-based; details: lung, liver, breast, pancreas lines
Method: Cell survival assays (FIGS. 12-19) were performed in 96-well plates in technical duplicates. Treatments started 24 hours post cell plating and lasted for 6-days prior to cell viability assessment with the Cell Titer Glo 2.0 Luminescent assay (Promega, G9242).

mouse ESCs [2] = assay: Cell survival of artemisinin treated mouse embryonic stem cells (Alamar Blue, 48 h); assay type: cell-based; details: artemisinin combined with acifluorfen or 5-ALA (0.5 mM)
Method: For dosage responses, cells were seeded in 96-wells (25.000/ 96-well, in triplicate -where indicated) and subjected to compounds for 48 h. Cell viability was assessed using automated cell counting (high-throughput flow cytometry), Alamar Blue staining (Invitrogen, DAL1100) or CellTiter-Glo Luminescent Assay (Promega, G7570, according to the manufacturer’s protocol) respectively.

mouse ESCs [3] = assay: Competitive growth assay of wild-type and knockout sister ESC clones in presence of artemisinin; assay type: cell-based; details: mixed labelled cells, artemisinin exposure, flow cytometry
Method: Haploid ESCs harbouring gene traps in nomic introns were seeded at low density in normal ESC growth medium and infected for 12 h with two viruses, one encoding mCherry plus Cre recombinase and the other coding for GFP, both together with puromycin (Invivogen, ant-pr-1). Infected cells were selected (final concentration of puromycin, 1 µg/ml) after 24 h and expanded. Ratios of GFP- to mCherry/Cre-expressing cells in the presence and absence of artemisinin were determined using high-throughput flow cytometry (BD LSRFortessa HTS Cell Analyzer).

[4] = system: neuroblastoma cells (SHSY5Y), Jurkat and HL-60 cells; assay: ROS levels by Dihydroethidium (DHE) staining and flow cytometry in cell lines; assay type: cell-based; details: artemisinin alone; Jurkat and HL-60 cells, 48 h
Method: Treated cells were collected, washed with 1x HBSS (without Ca2+ and Mg2+), incubated with 1mM DHE (Dihydroethidium (Hydroethidine), Invitrogen, D11347) in 1x HBSS for 45 min at 37° C., washed twice and counterstained with DAPI or a viability dye (eBioscience™ Fixable Viability Dye eFluor™ 780, 65-0865-18) for 10 min on ice. Cells were then collected, strained and analysed using flow cytometry for DHE in the red fluorescent spectrum (PE channel).

[5] = system: human cerebral tumor organoids (CNS-PNET); assay: Compound profiling in CNS-PNET cerebral tumor organoids (GFP-positive tumor cells); assay type: cell-based; details: very high concentrations, compound alone
Method: Tumor initiation was induced by either oncogene amplification, using a Sleeping Beauty (SB) transposase, or mutation of tumor suppressor genes, using the CRISPR-Cas9 system in day 10 old embryoid bodies (EBs). Plasmids carrying the transposase as well as GFP and the desired oncogenes or expressing Cas9 nuclease were introduced by electroporation. In brief, a mixture of 1 μg DNA and 100 μl nucleofector solution was added to 10 EBs and transferred to a nucleofection cuvette. The Lonza Nucleofector 2b and the A-023 program were used for electroporation/ nucleofection. Thereafter, EBs were transferred into 10 cm dishes containing differentiation media containing vitamin A and embedded into Matrigel 24 hours later. Two different types of tumors were initiated {Bian:2018gs}: Central nervous system primitive neuroectodermal tumors (CNS-PNET) were induced by the overexpression of Myc. Glioblastoma-like tumor group 2 (GBM-2) was caused by mutagenesis of the tumor suppressor genes p53, NF1 and PTEN. All plasmids were designed by Shan Bian {Bian, S. et al. Genetically engineered cerebral organoids model brain tumor formation. Nat. Methods 15, 631-639 (2018)}. Cerebral tumor organoids were treated with different compounds and the survival and growth of transformed as well as untransformed neurons was monitored. Fluorescence labeling of tumor cells allowed clear distinguishability of transformed cells as compared to non-labeled throughout the experiment using brightfield microscopy, as well as fluorescence imaging. The transformed tumor tissue and untransformed neurons within the same organoid was monitored using fluorescence imaging, as well as brightfield microscopy throughout the experiment. At the endpoint of the treatment (d5 or d7 respectively), the number of GFP-positive cells was assessed by flow cytometry. Cerebral (tumor) organoids were enzymatically and mechanically dissociated using 1x trypsin, 35-45 min incubation at 37° C., and gentle shaking. […] Single cells in suspension were counterstained with DAPI or a viability dye (eBioscienceTM Fixable Viability Dye eFluorTM 780, 65-0865-18), and analysed using flow cytometry (BD LSRFortessa HTS Cell Analyzer). The amounts of GFP-positive cells were analyzed. […] Brightfield and green fluorescence images were taken from the same area. Additionally, for image analyses, the Celldiscoverer 7 (Zeiss), a fully integrated high-end automated live cell imaging system, was used. Cerebral organoids were fixed in 4% PFA (room temperature, 1 h), incubated with 30% sucrose (4° C., o/n), OCT (Tissue-tek OCT Compound, […], 4583) embedded and 20 μm sections were cryostat cut (-12/-14° C.). […] Fluorescence Mounting Medium (Dako, S302380) was used for mounting the sample slides. […]

[6] = system: human glioblastoma-like neoplastic organoid model; assay: Compound profiling in human glioblastoma-like neoplastic organoid model (p53, NF1, PTEN mutated); assay type: cell-based; details: compound alone
Method: Tumor initiation was induced by either oncogene amplification, using a Sleeping Beauty (SB) transposase, or mutation of tumor suppressor genes, using the CRISPR-Cas9 system in day 10 old embryoid bodies (EBs). Plasmids carrying the transposase as well as GFP and the desired oncogenes or expressing Cas9 nuclease were introduced by electroporation. In brief, a mixture of 1 μg DNA and 100 μl nucleofector solution was added to 10 EBs and transferred to a nucleofection cuvette. The Lonza Nucleofector 2b and the A-023 program were used for electroporation/ nucleofection. […] Cerebral tumor organoids were treated with different compounds and the survival and growth of transformed as well as untransformed neurons was monitored. Fluorescence labeling of tumor cells allowed clear distinguishability of transformed cells as compared to non-labeled throughout the experiment using brightfield microscopy, as well as fluorescence imaging. The transformed tumor tissue and untransformed neurons within the same organoid was monitored using fluorescence imaging, as well as brightfield microscopy throughout the experiment. At the endpoint of the treatment (d5 or d7 respectively), the number of GFP-positive cells was assessed by flow cytometry. […] Brightfield and green fluorescence images were taken from the same area. […]

[7] = system: colorectal cancer (CRC) cells; details: reported in literature; cited from earlier work

O=c1[nH]cc(F)c(=O)[nH]1 [5-fluorouracil]
effect of the chemotherapeutic agent when combined with the double combination ART/DHA/ARS with 5-ALA [1]: enhances

O=C(O)c1cc(Oc2ccc(C(F)(F)F)cc2Cl)ccc1[N+](=O)[O-] [acifluorfen]
susceptibility to artemisinin (cell survival) (mouse ESCs [2]): increased resistance to artemisinin

C[C@@H]1CC[C@H]2[C@@H](C)C(=O)O[C@@H]3O[C@@]4(C)CC[C@@H]1[C@]32OO4 [artemisinin]
relative growth of wild-type (mCherry_Cre) and knockout (GFP) sister cell clones (mouse ESCs [3]): selective loss of wild-type (mCherry_Cre) and strong expansion of knockout cells (GFP) | ROS levels (DHE) [4]: increased levels of ROS | growth of GFP-positive tumor organoids [5]: notable growth inhibition | survival of untransformed and transformed cells [6]: little effect on the survival of untransformed cells as well as transformed cells | cytotoxicity [7]: specific cytotoxicity

N.N.O=C([O-])C1(C(=O)[O-])CCC1.[Pt+2] [carboplatin]
effect of the chemotherapeutic agent when combined with the double combination ART/DHA/ARS with 5-ALA [1]: enhances

N.N.[Cl][Pt][Cl] [cisplatin]
effect of the chemotherapeutic agent when combined with the double combination ART/DHA/ARS with 5-ALA [1]: enhances

Cc1c2oc3c(C)ccc(C(=O)N[C@@H]4C(=O)N[C@H](C(C)C)C(=O)N5CCC[C@H]5C(=O)N(C)CC(=O)N(C)[C@@H](C(C)C)C(=O)O[C@@H]4C)c3nc-2c(C(=O)N[C@@H]2C(=O)N[C@H](C(C)C)C(=O)N3CCC[C@H]3C(=O)N(C)CC(=O)N(C)[C@@H](C(C)C)C(=O)O[C@@H]2C)c(N)c1=O [dactinomycin] (I: T[dV]P[Sar][NMeV] / II: T[dV]P[Sar][NMeV]; ester I:1-I:C, II:1-II:C; linker I:N-II:N via Actinocin(9to1))
effect of the chemotherapeutic agent when combined with the double combination ART/DHA/ARS with 5-ALA [1]: enhances

COc1cccc2c1C(=O)c1c(O)c3c(c(O)c1C2=O)C[C@@](O)(C(=O)CO)C[C@@H]3O[C@H]1C[C@H](N)[C@H](O)[C@H](C)O1 [doxorubicin]
effect of the chemotherapeutic agent when combined with the double combination ART/DHA/ARS with 5-ALA [1]: enhances

COc1cccc2c1C(=O)c1c(O)c3c(c(O)c1C2=O)C[C@@](O)(C(=O)CO)C[C@@H]3O[C@H]1C[C@H](N)[C@@H](O)[C@H](C)O1 [epirubicin]
effect of the chemotherapeutic agent when combined with the double combination ART/DHA/ARS with 5-ALA [1]: enhances

COC(=O)C[C@](O)(CCCC(C)(C)O)C(=O)O[C@@H]1C(OC)=C[C@]23CCCN2CCc2cc4c(cc2[C@H]13)OCO4 [homoharringtonin]
effect of the chemotherapeutic agent when combined with the double combination ART/DHA/ARS with 5-ALA [1]: enhances

O=NN(CCCl)C(=O)NC1CCCCC1 [lomustine]
effect of the chemotherapeutic agent when combined with the double combination ART/DHA/ARS with 5-ALA [1]: enhances

CC(C)[C@]12O[C@H]1[C@@H]1O[C@]13[C@]1(O[C@H]1C[C@H]1C4=C(CC[C@@]13C)C(=O)OC4)[C@@H]2O [triptolide]
effect of the chemotherapeutic agent when combined with the double combination ART/DHA/ARS with 5-ALA [1]: enhances

vinorebine
effect of the chemotherapeutic agent when combined with the double combination ART/DHA/ARS with 5-ALA [1]: enhances
